Experimental data from paper PMC9147975, “New Antibacterial Chloro-Containing Polyketides from the Alga-Derived Fungus Asteromyces cruciatus KMM 4696” (Journal of Fungi, 2022).
“Also recorded” adds a separate entry of the source.

Key:
[1] = system: human keratinocytes HaCaT co-cultivated with S. aureus; assay: Co-cultivation of HaCaT cells with S. aureus, LDH release; type: cell-based; details: 10 μM, 48 h co-cultivation
Description: Co-cultivation of HaCaT cells with S. aureus was carried out as described. HaCaT cells at a concentration of 1.5×10^4 cells per well were seeded in 96-well plates for 24 h. Then, culture medium in each well was changed with S. aureus suspension (10^2 CFU/mL) in full DMEM medium. Fresh DMEM medium without S. aureus suspension was added in other wells as needed. Compounds 1–6 at a concentration of 10 μM were added in wells after 1 h. HaCaT cells and S. aureus were cultured at 37 °C in a humidified atmosphere with 5% (v/v) CO2 for 48 h. After incubation, the plate was centrifuged at 250× g for 10 min and 50 µL of supernatant from each well was transferred into the corresponding wells of an optically clear 96-well plate. An equal volume of the reaction mixture (50 µL) from LDH Cytotoxicity Assay Kit (Abcam, Cambridge, UK) was added to each well and incubated for up to 30 min at room temperature. The absorbance of all samples was measured at λ = 450 nm using a Multiskan FC microplate photometer (Thermo Scientific, Waltham, MA, USA) and expressed in optical units (o.u.).

[2] = system: Staphylococcus aureus ATCC 21027; assay: Antimicrobial activity, bacterial growth (OD620); type: cell-based; details: for inhibition at 100 µM: read-out: inhibition of S. aureus growth; for change of antimicrobial activity on decrease of concentration: decrease of concentration from 100 μM (two-fold for compound 6)
Description: The antibacterial activity of compounds 1–6 was evaluated as described previously. The bacterial culture of Staphylococcus aureus ATCC 21027 (Collection of Marine Microorganisms PIBOC FEBRAS) was cultured in a Petri dish at 37 °C for 24 h on solid medium Mueller Hinton broth with agar—16.0 g/L. The assays were performed in 96-well microplates in appropriate Mueller Hinton broth. Each well contained 90 µL of bacterial suspension (10^9 CFU/mL). Then, 10 µL diluted at concentrations from 1.5 µM to 100.0 µM using two-fold dilution was added to compounds 1–6 (DMSO concentration < 1%). Culture plates were incubated overnight at 37 °C, and the OD620 was measured using a Multiskan Spectrum spectrophotometer (Thermo Labsystems Inc., Beverly, MA, USA). Gentamicin was used as a positive control in concentration 1 mg/mL; 1% DMSO solution in PBS as a negative.

[3] = system: biofilm formation of Staphylococcus aureus; assay: Biofilm formation, crystal violet biofilm assay; type: cell-based; details: for inhibition at 100 µM: Staphylococcus aureus; for formation of biofilms (in words): 100 μM
Description: The inhibition of the reducing biofilm formation and growth was assessed using the crystal violet biofilm assay as described. Mueller Hinton broth was inoculated with 10^9 CFU/mL of S. aureus overnight cultures. A total of 90 µL of this cell suspension was then dispensed into 96-well microtiter plates containing 10 µL of different concentrations of compounds 1–6. After 24 h growth at 37 °C the plates were washed with PBS to remove unbound cells. Next, the wells were stained with 0.1% crystal violet solution for 10 min at 37 °C. At the completion of the incubation, plates were washed 3 times with PBS and dried. Then, the crystal violet dye from the biofilm was solubilized with 100 µL of ethanol. A total of 100 µL of this solution was then moved to a new microtiter plate for absorbance measurement at λ = 570 nm. The results were reported as percent inhibition normalized to the wild-type control.

[4] = molecular target: T1, sortase A from Staphylococcus aureus (Staphylococcus aureus, UniProt Q2FV99); assay: Sortase activity inhibition assay (SensoLyte 520 Sortase A Activity Assay Kit); type: biochemical; details: 50 μM; for effect on sortase A enzymatic activity (in words) / decrease of sortase A activity: after 10 min of incubation with the substrate
T1 construct: purchased AnaSpec AS-72229
Description: The enzymatic activity of sortase A from Staphylococcus aureus was determined using SensoLyte 520 Sortase A Activity Assay Kit * Fluorimetric * (AnaSpec AS-72229, AnaSpec, San Jose, CA, USA) in accordance with the manufacturer’s instructions. […] DMSO at a concentration of 0.8% was used as a control. PCMB (4-(hydroxymercuri)benzoic acid) was used as sortase A enzyme activity inhibitor. Fluorescence was measured with a plate reader PHERAStar FS (BMG Labtech, Offenburg, Germany) for 60 min, with a time interval of 5 min. The data were processed with MARS Data Analysis v. 3.01R2 (BMG Labtech, Offenburg, Germany). The results were presented as relative fluorescent units (RFUs) and percentage of the control data, calculated using STATISTICA 10.0 software.

[5] = system: Staphylococcus aureus ATCC 21027; parameters: method as in PMID 34677452; details: cited from earlier work
[6] = system: human keratinocytes HaCaT co-cultivated with S. aureus; parameters: method as in PMID 34677452; details: cited from earlier work
[7] = molecular target: T1, sortase A from Staphylococcus aureus; details: cited from earlier work
[8] = system: biofilm formation of Staphylococcus aureus; parameters: method as in PMID 34677452; details: cited from earlier work
[9] = Staphylococcus aureus, ATCC21027, 100 μM

T1 sequence (Q2FV99 whole entry): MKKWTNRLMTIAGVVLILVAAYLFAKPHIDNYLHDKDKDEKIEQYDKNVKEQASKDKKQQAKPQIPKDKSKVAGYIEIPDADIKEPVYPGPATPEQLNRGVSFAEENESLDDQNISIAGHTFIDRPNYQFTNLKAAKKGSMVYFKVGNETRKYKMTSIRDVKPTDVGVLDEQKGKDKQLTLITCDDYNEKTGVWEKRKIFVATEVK

C=C(C)C#C[C@@H]1C[C@H](O)[C@H](Cl)[C@@H](O)[C@H]1O (relative stereo) [Compound 2, Acrucipentyn B]
effect on LDH release (in words) [1]: greatest effect; also recorded: significant activity
inhibition at 100 µM [2, 9]: ≤ 50%
effect on biofilm formation, comparison in words [3]: did not show a significant effect
inhibition at 100 µM [3]: 30%
effect on sortase A enzymatic activity (in words) [4]: inactive; also recorded: did not have any effect

C=C(C)C#C[C@@H]1C[C@H](O)[C@H](O)[C@@H](Cl)[C@@H]1O (relative stereo) [Compound 3, Acrucipentyn C]
inhibition at 100 µM [2, 9]: 50%
change of antimicrobial activity on decrease of concentration [2]: two-fold decrease in activity
concentration down to which a high level of inhibition of biofilm formation is kept [3]: 12.5 µM
formation of biofilms (in words) [3]: almost absent
time-dependent inhibitory effect on sortase A activity ([4]; 60 min data acquisition): detected throughout the entire period of data acquisition
decrease of sortase A activity [4]: 30%

C=C(C)C#CC1=C[C@@H](O)[C@@H](Cl)[C@H](O)[C@@H]1O (relative stereo) [Compound 4, Acrucipentyn D]
effect on LDH release (in words) [1]: greatest effect; also recorded: significant activity
inhibition at 100 µM [2, 9]: ≤ 50%
formation of biofilms (in words) [3]: almost absent
change of effect on biofilm formation when diluted twice ([3]; diluted twice from 100 μM): halved
effect on sortase A enzymatic activity (in words) [4]: less significant effects

C=C(C)C#CC1=C[C@@H](O)[C@H](O)[C@@H](Cl)[C@@H]1O (relative stereo) [Compound 5, Acrucipentyn E]
effect on LDH release (in words) [1]: greatest effect
inhibition at 100 µM [2, 9]: ≤ 50%
effect on biofilm formation, comparison in words [3]: weaker inhibitory effect
inhibition at 100 µM [3]: 30%
decrease of sortase A activity [4]: 21%

C=C(C)C#CC1=C[C@@H](O)[C@@H]2O[C@@H]2[C@@H]1O (relative stereo) [Compound 6, Acrucipentyn F]
antimicrobial effect against S. aureus, ranking in words [2]: most pronounced antimicrobial effects
inhibition of S. aureus growth (in words) ([2]; 100 μM): almost completely inhibited
change of antimicrobial activity on decrease of concentration [2]: halved
concentration down to which a high level of inhibition of biofilm formation is kept [3]: 25 µM
formation of biofilms (in words) [3]: almost absent
effect on sortase A enzymatic activity (in words) [4]: less significant effects

C=C(C)C#C[C@@H]1C[C@@H](O)[C@@H](Cl)[C@H](O)[C@@H]1O [Compound 1, Acrucipentyn A]
effect on LDH release (in words) [1]: greatest effect
antimicrobial effect against S. aureus, ranking in words [2]: most pronounced antimicrobial effects
inhibition at 12.5 µM ([2]; Staphylococcus aureus, ATCC21027, 12.5 μM, read-out: antimicrobial activity (inhibition of S. aureus growth)): ≤ 50%
inhibition at 100 µM [2, 9]: 60%
inhibition of biofilm formation ([3]; concentrations of 12.5–100 μM, respectively): 50–70%
decrease of sortase A activity [4]: 18%

flavuside B
S. aureus growth (in words) [5]: able to inhibit
protection of HaCaT keratinocytes in co-culture model (in words) [6]: protect HaCaT keratinocytes against S. aureus infection
sortase A enzymatic activity (in words) [7]: inhibitor of sortase A enzymatic activity
S. aureus biofilm formation (in words) [8]: able to inhibit
